Earlier results in patent publication US20040116402A1, “Superoxide dismutase mimics for the treatment of ocular disorders and diseases” (priority 2002, published 2004).

Legend:
[1] = test system: autoimmune diabetes by a diabetogenic T-cell clone; details: in a cloned cell (diabetogenic T-cell clone adoptive transfer)

In the case of `CC1(C)CC(O)CC(C)(C)N1[O]` [4-hydroxy-2,2,6,6-tetramethylpiperidine-1-oxyl], the light-induced retinal damage (albino rats) is listed as “inhibited light-induced retinal damage”.
In the case of `CCN1C=CC=C/C1=C1/C2=NC(=C(c3cccc[n+]3CC)C3=NC(=C(c4cccc[n+]4CC)c4ccc([n-]4)C(c4cccc[n+]4CC)=C4C=CC1=N4)C=C3)C=C2.[Cl-].[Cl-].[Cl-].[Cl-].[Cl-].[Mn+3]` [AEOL10113], the onset of diabetes [1] is given as “delay the onset of diabetes”.
For `[Cl-].[Cl-].[Mn+2].c1cc2nc(c1)CN[C@@H]1CCCC[C@H]1NCCN[C@@H]1CCCC[C@H]1NC2` [M40403], the “vascular and neural dysfunction” value (diabetic rats) is listed as “prevented vascular and neural dysfunction”.
